Measurements as given in US20240415914A1, “Water Dispersible Cannabinoid Compositions” (priority 2021, published 2024).

Test: Stability of cannabinoid and Vitamin E components of Beverage 2 (AB Red) stored at 8° C. and 21-25° C., LCMSMS over 570 days
Description: The LCMSMS was calibrated for 0-50 ng/ml cannabinoids with the same resin material used in the preparation of the concentrates. At each time period, 100 μml of beverage was diluted with 10 ml of methanol and injected into the LCMSMS for analysis.

## CCCCCc1cc(O)c2c(c1)OC1(C)CCC3C1C2C3(C)C (centres unmarked) [CBL, cannabicyclol]
8° C., 0 days
  Stability of Cannabinoids in AB Red: 0.510 µg/mL
8° C., 1 days
  Stability of Cannabinoids in AB Red: 0.512 µg/mL
8° C., 2 days
  Stability of Cannabinoids in AB Red: 0.508 µg/mL
8° C., 3 days
  Stability of Cannabinoids in AB Red: 0.499 µg/mL
8° C., 5 days
  Stability of Cannabinoids in AB Red: 0.501 µg/mL
8° C., 8 days
  Stability of Cannabinoids in AB Red: 0.496 µg/mL
8° C., 9 days
  Stability of Cannabinoids in AB Red: 0.496 µg/mL
8° C., 10 days
  Stability of Cannabinoids in AB Red: 0.505 µg/mL
8° C., 11 days
  Stability of Cannabinoids in AB Red: 0.501 µg/mL
8° C., 12 days
  Stability of Cannabinoids in AB Red: 0.499 µg/mL
8° C., 15 days
  Stability of Cannabinoids in AB Red: 0.510 µg/mL
8° C., 16 days
  Stability of Cannabinoids in AB Red: 0.502 µg/mL
8° C., 17 days
  Stability of Cannabinoids in AB Red: 0.514 µg/mL
8° C., 18 days
  Stability of Cannabinoids in AB Red: 0.513 µg/mL
8° C., 19 days
  Stability of Cannabinoids in AB Red: 0.510 µg/mL
8° C., 22 days
  Stability of Cannabinoids in AB Red: 0.495 µg/mL
8° C., 23 days
  Stability of Cannabinoids in AB Red: 0.502 µg/mL
8° C., 24 days
  Stability of Cannabinoids in AB Red: 0.508 µg/mL
8° C., 25 days
  Stability of Cannabinoids in AB Red: 0.510 µg/mL
8° C., 26 days
  Stability of Cannabinoids in AB Red: 0.502 µg/mL
8° C., 29 days
  Stability of Cannabinoids in AB Red: 0.511 µg/mL
8° C., 30 days
  Stability of Cannabinoids in AB Red: 0.511 µg/mL
8° C., 60 days
  Stability of Cannabinoids in AB Red: 0.491 µg/mL
8° C., 90 days
  Stability of Cannabinoids in AB Red: 0.501 µg/mL
8° C., 120 days
  Stability of Cannabinoids in AB Red: 0.488 µg/mL
8° C., 150 days
  Stability of Cannabinoids in AB Red: 0.501 µg/mL
8° C., 180 days
  Stability of Cannabinoids in AB Red: 0.506 µg/mL
8° C., 210 days
  Stability of Cannabinoids in AB Red: 0.490 µg/mL
8° C., 240 days
  Stability of Cannabinoids in AB Red: 0.490 µg/mL
8° C., 270 days
  Stability of Cannabinoids in AB Red: 0.504 µg/mL
8° C., 300 days
  Stability of Cannabinoids in AB Red: 0.489 µg/mL
8° C., 330 days
  Stability of Cannabinoids in AB Red: 0.505 µg/mL
8° C., 390 days
  Stability of Cannabinoids in AB Red: 0.491 µg/mL
8° C., 420 days
  Stability of Cannabinoids in AB Red: 0.494 µg/mL
8° C., 450 days
  Stability of Cannabinoids in AB Red: 0.492 µg/mL
8° C., 480 days
  Stability of Cannabinoids in AB Red: 0.487 µg/mL
8° C., 510 days
  Stability of Cannabinoids in AB Red: 0.468 µg/mL
8° C., 540 days
  Stability of Cannabinoids in AB Red: 0.470 µg/mL
8° C., 570 days
  Stability of Cannabinoids in AB Red: 0.469 µg/mL
21-25° C., 0 days
  Stability of Cannabinoids in AB Red: 0.51 µg/mL
21-25° C., 1 days
  Stability of Cannabinoids in AB Red: 0.50 µg/mL
21-25° C., 2 days
  Stability of Cannabinoids in AB Red: 0.50 µg/mL
21-25° C., 3 days
  Stability of Cannabinoids in AB Red: 0.50 µg/mL
21-25° C., 5 days
  Stability of Cannabinoids in AB Red: 0.51 µg/mL
21-25° C., 8 days
  Stability of Cannabinoids in AB Red: 0.50 µg/mL
21-25° C., 9 days
  Stability of Cannabinoids in AB Red: 0.51 µg/mL
21-25° C., 10 days
  Stability of Cannabinoids in AB Red: 0.50 µg/mL
21-25° C., 11 days
  Stability of Cannabinoids in AB Red: 0.50 µg/mL
21-25° C., 12 days
  Stability of Cannabinoids in AB Red: 0.50 µg/mL
21-25° C., 15 days
  Stability of Cannabinoids in AB Red: 0.50 µg/mL
21-25° C., 16 days
  Stability of Cannabinoids in AB Red: 0.51 µg/mL
21-25° C., 17 days
  Stability of Cannabinoids in AB Red: 0.51 µg/mL
21-25° C., 18 days
  Stability of Cannabinoids in AB Red: 0.50 µg/mL
21-25° C., 19 days
  Stability of Cannabinoids in AB Red: 0.49 µg/mL
21-25° C., 22 days
  Stability of Cannabinoids in AB Red: 0.49 µg/mL
21-25° C., 23 days
  Stability of Cannabinoids in AB Red: 0.51 µg/mL
21-25° C., 24 days
  Stability of Cannabinoids in AB Red: 0.50 µg/mL
21-25° C., 25 days
  Stability of Cannabinoids in AB Red: 0.51 µg/mL
21-25° C., 26 days
  Stability of Cannabinoids in AB Red: 0.51 µg/mL
